US20080241862A1, “PROPIONYL AND BUTYRYL LYSINE MODIFICATIONS IN PROTEINS” (priority 2007, published 2008)

System: K^Buty of H3 and H4 in HeLa cells
Assay: K^Buty level in histones of HeLa cells treated with HDAC inhibitors (immunoblot)
Type: cell-based
Conditions: anti-K^Buty immunoblot
Method: FIGS. 17A-C. […] Four peptide libraries were spotted on nitrocellulose membrane with four dilutions and were used to assay the antibody's specificity. The 14-residue randomized peptide libraries have a fixed residue at 8th position, K^Ac in lane 1, K^Prop in lane 2, K^Buty in lane 3, and K in lane 4. Dot-blot analysis was used to test the specificity of the antibody. To perform the dot-blot analysis, 2 ul of peptide diluted in distilled water to different concentrations was spotted on a strip of nitrocellulose membrane and allowed to air dry. The membrane was then assayed in a manner similar to that used in the immunoblot analysis. […] Lane 3 and 4 are WB controls using anti-H3 and anti-H4 antibodies, respectively. For antibody competition assay, 200 ng of anti-K^Buty antibody was incubated with 1 ug of a peptide library with a fixed non-modified lysine (lane 1) or with a fixed butyryllysine (lane 2), respectively. After incubation for 3 hour at room temperature, the antibody was subjected to immunoblot against core histones derived from Hela cells. Histone H3 and H4 antibodies were used to indicate the positions of H3 or H4 (lane 3 and lane 4). […] The core histones were prepared from HeLa cells treated with nothing, or trichostatin A (TSA), or sodium butyrate (NaBu), as indicated. […]

SMILES | K^Buty level (20 mM for 6 hours) | K^Buty level (10 uM, 6 Hours)
CCCC(=O)[O-].[Na+] [sodium butyrate] | dramatically induced | 
CC(/C=C/C(=O)NO)=C\[C@@H](C)C(=O)c1ccc(N(C)C)cc1 [trichostatin A] |  | dramatically induced
